Test results: ChEMBL document CHEMBL4706528, “The design, synthesis and anti-tumor mechanism study of new androgen receptor degrader” (Eur J Med Chem, 2020)
The source made the active and inactive calls. The calls are words filed in the database; no cut-off is given here.

Assays:
LNCaP [1] = test: Antiproliferative activity against androgen-positive human LNCaP cells assessed as cell growth inhibition measured after 72 hrs by SRB assay; assay type: functional, cell-based
[2] = Cytotoxicity against androgen-negative human WPMY-1 cells assessed as cell growth inhibition measured after 72 hrs by SRB assay; assay type: cell-based; conditions: WPMY-1, 72 h
GES1 = test: Cytotoxicity against androgen-negative human GES1 cells assessed as cell growth inhibition measured after 72 hrs by SRB assay; assay type: cell-based; conditions: GES1, 72 h
LNCaP [3] = test: Induction of cell cycle arrest in human LNCaP cells assessed as accumulation at S phase at 1 micromol/L after 24 hrs by RNase A/PI-staining based flow cytometric analysis (reference value: 20.69%); assay type: functional; conditions: dose 1 µmol/L, at 1 µM
LNCaP [4] = test: Induction of cell cycle arrest in human LNCaP cells assessed as accumulation at G2 phase at 1 micromol/L after 24 hrs by RNase A/PI-staining based flow cytometric analysis (reference value: 20.87%); assay type: functional; conditions: dose 1 µmol/L, at 1 µM
LNCaP [5] = test: Induction of cell cycle arrest in human LNCaP cells assessed as accumulation at S phase at 2 micromol/L after 24 hrs by RNase A/PI-staining based flow cytometric analysis (reference value: 20.69%); assay type: functional; conditions: dose 2 µmol/L, at 2 µM
LNCaP [6] = test: Induction of cell cycle arrest in human LNCaP cells assessed as accumulation at G2 phase at 2 micromol/L after 24 hrs by RNase A/PI-staining based flow cytometric analysis (reference value: 20.87%); assay type: functional; conditions: dose 2 µmol/L, at 2 µM
LNCaP [7] = test: Induction of cell cycle arrest in human LNCaP cells assessed as accumulation at G1 phase at 10 micromol/L after 24 hrs by RNase A/PI-staining based flow cytometric analysis (reference value: 47.99%); assay type: functional; conditions: dose 10 µmol/L, at 10 µM
LNCaP [8] = test: Induction of apoptosis in human LNCaP cells assessed as late apoptotic cells level at 1 micromol/L incubated for 24 hrs by Annexin V/PI staining staining based flow cytometry (reference value: 0.940%); assay type: functional; conditions: dose 1 µmol/L, at 1 µM
LNCaP [9] = test: Induction of apoptosis in human LNCaP cells assessed as viable cells level at 1 micromol/L incubated for 24 hrs by Annexin V/PI staining staining based flow cytometry (reference value: 96.3%); assay type: functional; conditions: dose 1 µmol/L, at 1 µM
LNCaP [10] = test: Induction of apoptosis in human LNCaP cells assessed as late apoptotic cells level at 10 micromol/L incubated for 24 hrs by Annexin V/PI staining staining based flow cytometry (reference value: 0.940%); assay type: functional; conditions: dose 10 µmol/L, at 10 µM
LNCaP [11] = test: Induction of apoptosis in human LNCaP cells assessed as viable cells level at 10 micromol/L incubated for 24 hrs by Annexin V/PI staining staining based flow cytometry (reference value: 96.3%); assay type: functional; conditions: dose 10 µmol/L, at 10 µM
[12] = target: Transmembrane protease serine 2 (Homo sapiens) (UniProt O15393); test: Induction of downregulation of TMPRSS2 (unknown orgin) human LNCaP cells at 10 uM after 24 hrs by Western blot analysis
Progesterone receptor = target: T1, Progesterone receptor (Homo sapiens, UniProt P06401); test: Induction of downregulation of progesterone receptor in human T47D cells at 10 uM measured after 24 hrs by Western blot analysis; assay type: cell-based
T1 sequence (P06401 whole entry): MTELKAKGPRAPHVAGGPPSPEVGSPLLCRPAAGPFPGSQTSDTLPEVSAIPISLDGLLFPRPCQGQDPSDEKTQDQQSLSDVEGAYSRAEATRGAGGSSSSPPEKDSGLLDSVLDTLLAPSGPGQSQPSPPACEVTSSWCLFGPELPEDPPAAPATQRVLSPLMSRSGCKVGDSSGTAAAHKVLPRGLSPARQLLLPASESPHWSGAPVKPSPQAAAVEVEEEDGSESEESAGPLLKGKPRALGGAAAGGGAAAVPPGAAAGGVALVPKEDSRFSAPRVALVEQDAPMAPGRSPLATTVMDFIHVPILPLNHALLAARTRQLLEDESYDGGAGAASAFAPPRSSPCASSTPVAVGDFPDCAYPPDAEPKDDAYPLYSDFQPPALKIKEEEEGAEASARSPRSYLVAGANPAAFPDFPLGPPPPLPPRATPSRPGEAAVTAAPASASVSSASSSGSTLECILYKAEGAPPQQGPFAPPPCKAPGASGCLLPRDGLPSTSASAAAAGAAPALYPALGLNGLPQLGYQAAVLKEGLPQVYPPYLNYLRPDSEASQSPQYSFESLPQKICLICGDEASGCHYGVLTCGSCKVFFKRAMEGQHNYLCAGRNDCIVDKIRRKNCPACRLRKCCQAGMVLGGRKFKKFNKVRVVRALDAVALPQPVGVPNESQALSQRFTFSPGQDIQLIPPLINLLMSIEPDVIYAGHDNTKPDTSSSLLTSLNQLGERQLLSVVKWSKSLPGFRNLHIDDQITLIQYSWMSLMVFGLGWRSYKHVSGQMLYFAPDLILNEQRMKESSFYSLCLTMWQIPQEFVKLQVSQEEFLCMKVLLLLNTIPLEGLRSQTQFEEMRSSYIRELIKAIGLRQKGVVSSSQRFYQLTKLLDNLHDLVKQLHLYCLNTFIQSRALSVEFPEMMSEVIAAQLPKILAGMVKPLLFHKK

[13] = target: Prostate-specific antigen (Homo sapiens) (UniProt P07288); test: Induction of downregulation of PSA (unknown orgin) human LNCaP cells at 1 uM after 24 hrs by Western blot analysis
[14] = target: Prostate-specific antigen (Homo sapiens) (UniProt P07288); test: Induction of downregulation of PSA (unknown orgin) human LNCaP cells at 2 uM after 24 hrs by Western blot analysis

Chain of Prostate-specific antigen (Homo sapiens) (P07288 whole entry, looked up): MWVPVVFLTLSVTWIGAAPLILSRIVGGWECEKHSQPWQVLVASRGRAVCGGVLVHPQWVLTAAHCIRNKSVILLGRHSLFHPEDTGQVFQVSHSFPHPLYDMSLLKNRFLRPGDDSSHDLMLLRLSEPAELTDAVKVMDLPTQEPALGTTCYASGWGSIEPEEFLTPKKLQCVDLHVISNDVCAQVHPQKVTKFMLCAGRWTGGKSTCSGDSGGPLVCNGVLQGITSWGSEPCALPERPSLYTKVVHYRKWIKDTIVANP
Chain of Transmembrane protease serine 2 (Homo sapiens) (O15393 1-255 limits assumed): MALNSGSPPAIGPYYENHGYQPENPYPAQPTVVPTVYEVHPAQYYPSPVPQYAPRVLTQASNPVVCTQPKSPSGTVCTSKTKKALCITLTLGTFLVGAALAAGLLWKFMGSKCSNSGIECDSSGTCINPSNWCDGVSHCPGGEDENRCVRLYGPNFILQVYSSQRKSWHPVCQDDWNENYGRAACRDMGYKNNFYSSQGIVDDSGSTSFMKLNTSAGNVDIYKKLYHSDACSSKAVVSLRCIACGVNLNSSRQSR
Chain of Transmembrane protease serine 2 (Homo sapiens) (O15393 256-492 limits assumed): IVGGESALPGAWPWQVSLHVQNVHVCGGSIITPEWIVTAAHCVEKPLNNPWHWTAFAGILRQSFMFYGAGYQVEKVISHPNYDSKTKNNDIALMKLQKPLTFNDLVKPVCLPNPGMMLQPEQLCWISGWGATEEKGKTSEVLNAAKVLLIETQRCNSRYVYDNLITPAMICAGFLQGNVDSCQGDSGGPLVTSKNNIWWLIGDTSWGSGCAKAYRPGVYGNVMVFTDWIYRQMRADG

CC1(C)C(=O)N(c2ccc(C#N)c(C(F)(F)F)c2)C(=S)N1CCCCCn1cc(COCCOCCOC(=O)CC23CC4CC(CC(C4)C2)C3)nn1
IC50 (LNCaP [1]): 1.75 µM | IC50 [2]: > 80 µM | IC50 (GES1): > 80 µM | Activity (LNCaP [3]): 19.84% | Activity (LNCaP [4]): 20.07% | Activity (LNCaP [5]): 12.65% | Activity (LNCaP [6]): 8.9% | Activity (LNCaP [7]): 74.56% | Activity (LNCaP [8]): 1.59% | Activity (LNCaP [9]): 96.1% | Activity (LNCaP [10]): 6.6% | Activity (LNCaP [11]): 79% | Activity [12]: Active | Activity (Progesterone receptor): Active | Activity [13]: Active | Activity [14]: Active
